Assay results reported in patent EP4782448A1, “SUBSTITUTED PYRIDOTRIAZOLE COMPOUND, AND PREPARATION METHOD THEREFOR AND USE THEREOF” (Origiant Pharmaceutical Co., Ltd., priority 2023, dated 2025).

Test system: HT-29 cells
Test: In vitro assay for protection of HT-29 cells from necroptosis (TNFα/Smac mimetic/Z-VAD-FMK induction, CCK8 readout)
Assay type: cell-based
Settings: TNFα/Smac mimetic/Z-VAD-FMK for 24 h; inhibition of necroptosis; read-out: HT-29 (EC50)

Row | Compound | EC50
1 | Cn1cc(C(=O)N2CCC[C@H]2c2ccc(F)cc2)c2cc(-c3ccn4nc(NC(=O)C5CCOC5)nc4c3)ccc21 (stereo partly drawn) [Compound 186] | < 1 nM
2 | C[C@H](NC(=O)c1cn(C)c2ccc(-c3ccn4nc(NC(=O)CN5CCC[C@H](O)C5)nc4c3)cc12)c1ccc(F)cc1 [Compound 7] | < 1 nM
3 | C[C@H](NC(=O)c1cn(C)c2ccc(-c3ccn4nc(NC(=O)CN5CC[C@H](O)C5)nc4c3)cc12)c1ccc(F)cc1 [Compound 41] | < 1 nM
4 | CC(C)NCC(=O)Nc1nc2cc(-c3ccc4c(c3)c(C(=O)N[C@@H](C)c3ccc(F)cc3)cn4C)ccn2n1 [Compound 67] | < 1 nM
5 | CC(=O)Nc1nc2cc(-c3ccc4c(c3)c(C(=O)N[C@@H]3C[C@H]3c3ccc(F)c(F)c3)cn4C)ccn2n1 [Compound 125] | 1000 to 10000 nM
6 | CC(C(=O)Nc1cn(C)c2ccc(-c3ccn4nc(NC(=O)C5CC5)nc4c3)cc12)c1ccc(F)cc1 (stereo not drawn) [Compound 177] | 10 to 100 nM
7 | C[C@H](NC(=O)c1cn(C)c2ccc(-c3ccn4nc(NC(=O)CC(=O)O)nc4c3)cc12)c1ccc(F)cc1 [Compound 63] | 1000 to 10000 nM
8 | C[C@H](NC(=O)c1cn(C)c2ccc(-c3ccn4nc(NC(=O)CN5CCSCC5)nc4c3)cc12)c1ccc(Cl)cc1 [Compound 87] | < 1 nM
9 | Cn1cc(C(=O)N2N=CCC2c2ccc(F)cc2)c2cc(-c3ccn4nc(NC(=O)C5CC5)nc4c3)ccc21 (stereo not drawn) [Compound 170] | < 1 nM
10 | C[C@H](NC(=O)c1cn(C)c2ccc(-c3ccn4nc(NC(=O)CN5CC[C@H](CO)C5)nc4c3)cc12)c1ccc(F)cc1 [Compound 61] | 1 to 10 nM
11 | Cn1cc(C(=O)N[C@@H](CF)c2ccc(F)cc2)c2cc(-c3ccn4nc(NC(=O)C5CC5F)nc4c3)ccc21 (stereo partly drawn) [Compound 113] | 1 to 10 nM
12 | C[C@H](NC(=O)c1cn(C)c2ccc(-c3ccn4nc(NC(=O)CN5CCCC(CO)C5)nc4c3)cc12)c1ccc(F)cc1 (stereo partly drawn) [Compound 44] | 1 to 10 nM
13 | Cn1cc(C(=O)N2CC(F)(F)CC2c2ccc(F)cc2)c2cc(-c3ccn4nc(NC(=O)N5CCOCC5)nc4c3)ccc21 (stereo not drawn) [Compound 160] | < 1 nM
14 | CN1CC[C@@H](C(=O)Nc2nc3cc(-c4ccc5c(c4)c(C(=O)N[C@@H](CF)c4ccc(F)cc4)cn5C)ccn3n2)C1 [Compound 100] | < 1 nM
15 | C[C@H](NC(=O)c1cn(C)c2ccc(-c3ccn4nc(NC(=O)CN5CCOCC5)nc4c3)cc12)c1ccco1 [Compound 88] | 1 to 10 nM
16 | CC(c1ccc(F)cc1)n1cnc(-c2cn(C)c3ccc(-c4ccn5nc(NC(=O)C6CC6F)nc5c4)cc23)n1 (stereo not drawn) [Compound 209] | 100 to 1000 nM
17 | CC[C@H](NC(=O)c1cn(C)c2ccc(-c3ccn4nc(NC(=O)CN5CCOCC5)nc4c3)cc12)c1ccc(F)cc1 [Compound 197] | < 1 nM
18 | C[C@H](NC(=O)c1cn(C)c2ccc(-c3ccn4nc(NC(=O)CN5CCC(C#N)CC5)nc4c3)cc12)c1ccc(F)cc1 [Compound 23] | < 1 nM
19 | C[C@H](NC(=O)c1cn(C)c2ccc(-c3ccn4nc(NC(=O)CN5CCOCC5=O)nc4c3)cc12)c1ccc(F)cc1 [Compound 16] | 10 to 100 nM
20 | C[C@H](NC(=O)c1cn(C)c2ccc(-c3ccn4nc(NC(=O)CNCCOCCO)nc4c3)cc12)c1ccc(F)cc1 [Compound 65] | < 1 nM
21 | C[C@H](NC(=O)c1cn(C)c2ccc(-c3ccn4nc(NC(=O)C5CC5F)nc4c3)cc12)C(C)(C)C (stereo partly drawn) [Compound 92] | 100 to 1000 nM

Row | Compound | EC50
22 | CC1CN(CC(=O)Nc2nc3cc(-c4ccc5c(c4)c(C(=O)N[C@@H](C)c4ccc(F)cc4)cn5C)ccn3n2)CCO1 (stereo partly drawn) [Compound 45] | < 1 nM
23 | CCOC(=O)C(=O)Nc1nc2cc(-c3ccc4c(c3)c(C(=O)N[C@@H](C)c3ccc(F)cc3)cn4C)ccn2n1 [Compound 10] | 1 to 10 nM
24 | C[C@H](NC(=O)c1cn(C)c2ccc(-c3ccn4nc(NC(=O)Cn5cncn5)nc4c3)cc12)c1ccc(F)cc1 [Compound 57] | 10 to 100 nM
25 | Cn1cc(C(=O)N2CC(F)(F)CC2c2ccc(F)cc2)c2cc(-c3ccn4nc(NC(=O)C5CC5)nc4c3)ccc21 (stereo not drawn) [Compound 158] | 1000 to 10000 nM
26 | Cn1cc(C(=O)N[C@@H](CF)c2ccc(F)cc2)c2cc(-c3ccn4nc(NC(=O)N5CCOCC5)nc4c3)ccc21 [Compound 103] | < 1 nM
27 | Cn1cc(C(=O)N[C@@H](CF)c2ccc(F)cc2)c2cc(-c3ccn4nc(NC(=O)C5CC5(F)F)nc4c3)ccc21 (stereo partly drawn) [Compound 110] | < 1 nM
28 | CCN(CC)CC(=O)Nc1nc2cc(-c3ccc4c(c3)c(C(=O)N[C@@H](C)c3ccc(F)cc3)cn4C)ccn2n1 [Compound 36] | < 1 nM
29 | Cn1cc(C(=O)N[C@@H]2C[C@H]2c2ccc(F)c(F)c2)c2cc(-c3ccn4nc(NC(=O)[C@H]5CCCO5)nc4c3)ccc21 [Compound 184] | 100 to 1000 nM
30 | CC1CN(CC(=O)Nc2nc3cc(-c4ccc5c(c4)c(C(=O)N[C@@H](C)c4ccc(Cl)cc4)cn5C)ccn3n2)CCO1 (stereo partly drawn) [Compound 84] | < 1 nM
31 | Cn1cc(C(=O)Nc2nc3cc(-c4ccc5c(c4)c(C(=O)N[C@@H](CF)c4cccc(F)c4)cn5C)ccn3n2)cn1 [Compound 155] | < 1 nM
32 | C[C@H](NC(=O)c1cn(C)c2ccc(-c3ccn4nc(NC(=O)CN5CCN(C(=O)C6CC6)CC5)nc4c3)cc12)c1ccc(F)cc1 [Compound 50] | < 1 nM
33 | C[C@H](NC(=O)c1cn(C)c2ccc(-c3ccn4nc(NC(=O)C(N)=O)nc4c3)cc12)c1ccc(F)cc1 [Compound 11] | 1 to 10 nM
34 | CN1CCC(C(=O)Nc2nc3cc(-c4ccc5c(c4)c(C(=O)N[C@H](c4ccc(F)cc4)C(F)F)cn5C)ccn3n2)C1 (stereo partly drawn) [Compound 168] | < 1 nM
35 | Cn1cc(C(=O)N2CC(F)(F)CC2c2ccc(F)cc2)c2cc(-c3ccn4nc(NC(=O)C5CCOC5)nc4c3)ccc21 (stereo not drawn) [Compound 159] | < 1 nM
36 | Cn1cc(C(=O)N[C@@H](CF)c2ccc(F)cc2)c2cc(-c3ccn4nc(NC(=O)C5CCOC5)nc4c3)ccc21 (stereo partly drawn) [Compound 109] | 1 to 10 nM
37 | COCCOCCOCCOCC(=O)Nc1nc2cc(-c3ccc4c(c3)c(C(=O)N[C@@H](C)c3ccc(F)cc3)cn4C)ccn2n1 [Compound 26] | < 1 nM
38 | CO[C@@H](C)C(=O)Nc1nc2cc(-c3ccc4c(c3)c(C(=O)N[C@@H](CF)c3ccc(F)cc3)cn4C)ccn2n1 [Compound 98] | < 1 nM
39 | C[C@H](NC(=O)c1cn(C)c2ccc(-c3ccn4nc(NC(=O)N5CCOCC5)nc4c3)cc12)c1ccc(F)cc1 [Compound 116] | < 1 nM
40 | COC1CCN(CC(=O)Nc2nc3cc(-c4ccc5c(c4)c(C(=O)N[C@@H](C)c4ccc(F)cc4)cn5C)ccn3n2)C1 (stereo partly drawn) [Compound 19] | < 1 nM
41 | Cn1cc(C(=O)N[C@H](c2ccc(F)cc2)C(F)F)c2cc(-c3ccn4nc(NC(=O)CC#N)nc4c3)ccc21 [Compound 164] | < 1 nM
42 | C[C@H](NC(=O)c1cn(C)c2ccc(-c3ccn4nc(NC(=O)CN5CC[C@@H](CO)C5)nc4c3)cc12)c1ccc(F)cc1 [Compound 62] | < 1 nM

Row | Compound | EC50
43 | C[C@@H]1CN(CC(=O)Nc2nc3cc(-c4ccc5c(c4)c(C(=O)N[C@@H](C)c4ccc(Cl)cc4)cn5C)ccn3n2)C[C@H](C)O1 [Compound 85] | < 1 nM
44 | C[C@H](NC(=O)c1cn(C)c2ccc(-c3ccn4nc(NC(=O)CN5CCN(C(=O)OC(C)(C)C)C[C@H]5C)nc4c3)cc12)c1ccc(F)cc1 [Compound 64] | < 1 nM
45 | Cn1cc(C(=O)N2CCC[C@H]2c2ccc(F)cc2)c2cc(-c3ccn4nc(NC(=O)N5CCOCC5)nc4c3)ccc21 [Compound 153] | < 1 nM
46 | Cn1nc(C(=O)N[C@@H](CF)c2ccc(F)cc2)c2cc(-c3ccn4nc(NC(=O)N5CCOCC5)nc4c3)ccc21 [Compound 189] | < 1 nM
47 | C[C@H](NC(=O)c1cn(C)c2ccc(-c3ccn4nc(N5CCOCC5=O)nc4c3)cc12)c1ccc(F)cc1 [Compound 218] | 10 to 100 nM
48 | Cn1cc(C(=O)N[C@H](c2ccc(F)cc2)C(F)F)c2cc(-c3ccn4nc(NC(=O)CN5CCCCC5)nc4c3)ccc21 [Compound 163] | < 1 nM
49 | C[C@H](NC(=O)c1cn(C)c2ccc(-c3ccn4nc(NC(=O)CN5CCOC[C@@H]5C)nc4c3)cc12)c1ccc(Cl)cc1 [Compound 82] | < 1 nM
50 | Cn1cc(C(=O)N2CCC[C@H]2c2ccc(F)cc2)c2cc(-c3ccn4nc(NC(=O)C5CCCO5)nc4c3)ccc21 (stereo partly drawn) [Compound 154] | < 1 nM
51 | C[C@H](NC(=O)c1cn(C)c2ccc(-c3ccn4nc(NC(=O)CN5CCC[C@@H](O)C5)nc4c3)cc12)c1ccc(F)cc1 [Compound 49] | 1 to 10 nM
52 | CC(C(=O)Nc1cn(C)c2ccc(-c3ccn4nc(NC(=O)[C@H]5CCCO5)nc4c3)cc12)c1ccc(F)cc1 (stereo partly drawn) [Compound 179] | 100 to 1000 nM
53 | Cn1nc(C(=O)N[C@@H](CF)c2ccc(F)cc2)c2cc(-c3ccn4nc(NC(=O)C5CCOC5)nc4c3)ccc21 (stereo partly drawn) [Compound 188] | < 1 nM
54 | CN(C(=O)c1cn(C)c2ccc(-c3ccn4nc(NC(=O)C5CC5)nc4c3)cc12)[C@H]1CCc2cc(F)ccc21 [Compound 205] | 1 to 10 nM
55 | Cn1cc(C2=NC(c3ccc(F)cc3)CO2)c2cc(-c3ccn4nc(NC(=O)C5CC5)nc4c3)ccc21 (stereo not drawn) [Compound 212] | 10 to 100 nM
56 | COC(C)C(=O)Nc1nc2cc(-c3ccc4c(c3)c(C(=O)N[C@@H](CF)c3ccc(F)cc3)cn4C)ccn2n1 (stereo partly drawn) [Compound 112] | < 1 nM
57 | C[C@H](NC(=O)c1cn(C)c2ccc(-c3ccn4nc(NC(=O)CN5CCN(CCO)CC5)nc4c3)cc12)c1ccc(F)cc1 [Compound 70] | < 1 nM
58 | C[C@H](NC(=O)c1cn(C)c2ccc(-c3ccn4nc(NC(=O)[C@H]5CCCO5)nc4c3)cc12)c1ccc(F)cc1 [Compound 117] | < 1 nM
59 | C[C@H](NC(=O)c1cn(C)c2ccc(-c3ccn4nc(NC(=O)CN5CCOCC5)nc4c3)cc12)C(C)(C)C [Compound 90] | 1000 to 10000 nM
60 | Cn1cc(C(=O)Nc2nc3cc(-c4ccc5c(c4)c(C(=O)N[C@H]4CCCc6cc(F)ccc64)cn5C)ccn3n2)cn1 [Compound 141] | 1 to 10 nM
61 | C[C@H](NC(=O)c1cn(C)c2ccc(-c3ccn4nc(NC(=O)c5cnn(C)c5)nc4c3)cc12)C(C)(C)C [Compound 91] | 1000 to 10000 nM
62 | C[C@H](NC(=O)c1cn(C)c2ccc(-c3ccn4nc(NC(=O)CN5CC[C@H](F)C5)nc4c3)cc12)c1ccc(F)cc1 [Compound 21] | < 1 nM
63 | CC(=O)N1CCN(CC(=O)Nc2nc3cc(-c4ccc5c(c4)c(C(=O)N[C@@H](C)c4ccc(F)cc4)cn5C)ccn3n2)CC1 [Compound 53] | < 1 nM
